Assay results reported in article PMC12202533, “Mechanistic Insights and Anti-cancer Activity of 2H-benzo[b][1,4]oxazin-3(4H)-one Linked 1,2,3-Triazoles in Human Cancer Cells” (Frontiers in Pharmacology, 2025).

Experiments:
A549 cells = test: Autophagy staining assay (MDC probe); format: cell-based, human; details: A549, 10, 20, and 30 μM, 24 h
Description: To further evaluate the role of 2H-1,4-benzoxazin-3(4H)-one-linked 1,2,3-Triazole derivatives in regulating autophagy, A549 cells were treated with different doses (10, 20, and 30 μM) of compounds 14b and 14c for 24 h, and the autophagosome was detected by MDC (monodansylcadaverine) probe.
A549 cells were seeded at a density of 2 × 10^3 cells per well in a 96-well plate and treated with compounds at concentrations of 0, 5, 10, 20, and 30 μM for 24 h. After treatment, the medium was replaced, and cells were stained with monodansylcadaverine for 1 h in the dark at 37°C. Cells were then imaged using a confocal microscope.

KM mice = test: Acute toxicity test in mice; format: in vivo; details: 800 mg/kg oral gavage; for safety / toxicity in mice: 800 mg/kg
Description: We further evaluated the safety of compound 14b through an acute toxicity study in KM mice. Male and female mice were divided into two groups: a control group and a 14 b-treated group. The treated group received 800 mg/kg of compound 14b via oral gavage, while the control group was given an equivalent volume of solvent. Body weight was monitored over a 15-day period. At the end of the study, blood samples were collected from the retro-orbital sinus to assess the biochemical markers GPT and GOT, and the major organs—heart, liver, spleen, lungs, and kidneys—were weighed and subjected to HE staining.

| Structure (SMILES) | autophagy (autophagosome, MDC probe) (A549 cells) | HE staining of the major organs (heart, liver, spleen, lungs, and kidneys) (KM mice) | organ indices of the major organs versus control group (KM mice) | safety / toxicity in mice (KM mice) | body weight versus control group (KM mice; 15-day period) | GPT levels (KM mice; blood) | safety / toxicity in mice (KM mice; listed as 14 b) |
| --- | --- | --- | --- | --- | --- | --- | --- |
| O=C1COc2ccc(NC(=O)c3cccc(-c4cn(-c5cccc(Br)c5)nn4)c3)cc2N1 [Compound 14b] | autophagy was largely induced | no significant histopathological differences | no significant changes | low toxicity | no significant differences | slight but not statistically significant increase | favorable safety profile |
| O=C1COc2ccc(NC(=O)c3cccc(-c4cn(-c5ccccc5F)nn4)c3)cc2N1 [Compound 14c] | autophagy was largely induced |  |  |  |  |  |  |
